The text below walks through data of PubChem BioAssay AID743353 (Broad Institute, 2014).

The structures appear in SMILES notation. Calls of active or inactive are those of the source.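 Rule for the calls: active = compound that lowers cell viability with a fitted AC50 at most twice its highest valid tested dose; inconclusive = flat curve with 30 to 70% loss, or poor fit; inactive = the rest.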 Where only a bound is given, the exact number is not on record here.

System in one assay: not listed separately
The assay is described as follows: viability loss in HEK293 cells – cell-based, luminescence, dry powder, set 13, cytotoxicity control, dose response (AID 743353). Conditions: HEK293T viability, ATP luminescence CellTiter-Glo, 72 h; at 26 µM (top of the series).
Regarding `CC(=O)c1ccc(N2CCN(C(=O)Nc3ccc4c(c3)OCO4)CC2)cc1`, the activity change, negative = cytotoxicity is -0.537% (inactive).
In the case of `CC(=O)c1ccc(N2CCN(C(=O)c3ccc(Cl)c(Cl)c3)CC2)cc1`, the activity change, negative = cytotoxicity is -9.71% (inactive).
The same measure, in the same setting: as for `CC(=O)c1ccc(N2CCCN(C(=O)c3ccc4c(c3)OCO4)CC2)cc1`, the figure is 0.038% (inactive).
With `CC(=O)c1ccc(N2CCN(C(=O)c3ccc4ocnc4c3)CC2)cc1`, the activity change, negative = cytotoxicity is -8.67% (inactive).
As for `COc1cc(C(=O)N2CCN(c3ccc(C(C)=O)cc3)CC2)cc2c1OCO2`, the activity change, negative = cytotoxicity is -13.3% (inactive).
Consider `CC(=O)c1ccc(N2CCN(C(=O)c3cccc4c3OCO4)CC2)cc1`, for which the activity change, negative = cytotoxicity is 0.216% (inactive).
`CC(=O)c1ccc(N2CC3CC2CN3C(=O)c2ccc3c(c2)OCO3)cc1` (stereo unspecified): the activity change, negative = cytotoxicity was 4.9% (inactive).
Turning to `CC(=O)c1ccc(N2CCN(C(=O)c3cc4c(cc3Cl)OCO4)CC2)cc1`, the activity change, negative = cytotoxicity was -7.51% (inactive).
As to `CS(=O)(=O)c1ccc(N2CCN(C(=O)c3ccc4c(c3)OCO4)CC2)cc1`, the activity change, negative = cytotoxicity was 3.29% (inactive).
`CN(C)S(=O)(=O)c1ccc(N2CCN(C(=O)c3ccc4c(c3)OCO4)CC2)cc1`: the activity change, negative = cytotoxicity was -16.1% (inactive).
Take `CC(=O)c1ccc(N2CCN(C(=O)c3ccc4c(c3)OC(F)(F)O4)CC2)cc1`: the activity change, negative = cytotoxicity was -14.8% (inactive).
Same read-out and setting: for `O=C(c1ccc2c(c1)OCO2)N1CCN(c2ccc(OC(F)(F)F)cc2)CC1` the value was -10.3% (inactive); for `COc1cc2c(cc1C(=O)N1CCN(c3ccc(C(C)=O)cc3)CC1)OCO2`, -3.95% (inactive); for `CC(=O)c1ccc(N2CCN(C(=O)c3cc(Cl)c4c(c3)OCO4)CC2)cc1`, -6.52% (inactive).
Same read-out and setting: as for `O=C(c1ccc2c(c1)OCO2)N1CCN(c2ccc(S(=O)(=O)C(F)F)cc2)CC1`, the figure is -6.54% (inactive).
For `COc1ccc(C(=O)N2CCN(c3ccc(C(C)=O)cc3)CC2)cc1OC`, the activity change, negative = cytotoxicity is -1.09% (inactive).
Regarding `CC(=O)c1ccc(N2CCN(C(=O)c3ccc4c(c3)OCO4)CC2)cc1`, the activity change, negative = cytotoxicity is -2.01% (inactive).
The same measure, in the same setting: as for `N#Cc1ccc(N2CCN(C(=O)c3ccc4c(c3)OCO4)CC2)cc1`, the figure is -2.51% (inactive); as for `O=C(c1ccc2c(c1)OCO2)N1CCN(c2ccc(C(F)(F)F)cc2)CC1`, -8.83% (inactive); as for `CC(=O)c1ccc(N2CCN(C(=O)c3cc4c(cn3)OCO4)CC2)cc1`, -11.9% (inactive).
Take `CC(=O)c1ccc(N2CCN(C(=O)c3ccc4c(c3C)OCO4)CC2)cc1`: the activity change, negative = cytotoxicity was -17% (inactive).
As for `CC(=O)c1ccc(N2CCN(C(=O)c3ccc4snnc4c3)CC2)cc1`, the activity change, negative = cytotoxicity was -9.09% (inactive).
The same measure, in the same setting: for `CC(=O)c1ccc(N2CCN(S(=O)(=O)c3ccc4c(c3)OCO4)CC2)cc1` the value was -12.5% (inactive).

Another assay concerns HEK293T viability, ATP luminescence CellTiter-Glo, 72 h. Described as above.
Conditions: not given
What is called AC50 is the concentration giving half of the maximal activity seen. For `O=C(c1ccc2c(c1)OCO2)N1CCN(c2ccc(S(=O)(=O)C(F)(F)F)cc2)CC1`, the AC50 is > 52 µM (inactive).
Take `CC(=O)c1ccc(N2CCN(C(=O)c3cc4c(cc3C)OCO4)CC2)cc1`: the AC50 is > 52 µM (inactive).
For the compound `CC(=O)c1ccc(N2CCN(C(=O)c3ccc4c(c3)OC(C)(C)O4)CC2)cc1`, the AC50 is > 52 µM (inactive).
